From the supplement of paper PMC11061612

How the values were obtained:
Assay in all cases: Bliss excess, mean over the matrix (fraction); higher = more synergy
[1] = system: RCC-JW (Kidney Carcinoma)
How it was run: (§1)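 After 24 hours at 37°C and 5% CO2 in 1536-well plates, cells in DMEM/F12 or RPMI plus 10% FBS received two-drug dose matrices for 72 hours. Viability came from CellTiter-Glo 2.0 luminescence and was scaled as inhibition, anchored at 0 by vehicle wells and at 1 by blank wells. Combination Emax is taken as the second-highest inhibition in the matrix, and Bliss excess as the observed combination effect less EA + EB − EA·EB, with EA and EB the single-agent effects.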

[2] = system: NAMALWA (Burkitt's Lymphoma)
How it was run: as §1

[3] = system: SiHa (Cervical Carcinoma)
How it was run: as §1

ES6 (Ewing's Sarcoma) = system: ES6 (Ewing's Sarcoma)
How it was run: as §1

[4] = system: C-33-A (Cervical Carcinoma)
How it was run: as §1

[5] = system: NCI-H1963 (Small Cell Lung Carcinoma)
How it was run: as §1

[6] = system: MOLP-8 (Plasma Cell Myeloma)
How it was run: as §1

[7] = system: CPC-N (Small Cell Lung Carcinoma)
How it was run: as §1

[8] = system: SCC-4 (Oral Cavity Carcinoma)
How it was run: as §1

[9] = system: SKG-IIIa (Cervical Carcinoma)
How it was run: as §1

[10] = system: LCLC-103H (Non-Small Cell Lung Carcinoma)
How it was run: as §1

KALS-1 (Glioblastoma) = system: KALS-1 (Glioblastoma)
How it was run: as §1

SK-N-SH (Neuroblastoma) = system: SK-N-SH (Neuroblastoma)
How it was run: as §1

[11] = system: SAT (Head and Neck Carcinoma)
How it was run: as §1

[12] = system: DBTRG-05MG (Glioblastoma)
How it was run: as §1

[13] = system: SUP-M2 (T-Cell Non-Hodgkin's Lymphoma)
How it was run: as §1

[14] = system: PL4 (Pancreatic Carcinoma)
How it was run: as §1

[15] = system: SNU-C2B (Colorectal Carcinoma)
How it was run: as §1

[16] = system: OAW-28 (Ovarian Carcinoma)
How it was run: as §1

[17] = system: LS-1034 (Colorectal Carcinoma)
How it was run: as §1

SMILES | Bliss excess [1] | Bliss excess [2] | Bliss excess [3] | Bliss excess (ES6 (Ewing's Sarcoma)) | Bliss excess [4] | Bliss excess [5] | Bliss excess [6] | Bliss excess [7] | Bliss excess [8] | Bliss excess [9] | Bliss excess [10] | Bliss excess (KALS-1 (Glioblastoma)) | Bliss excess (SK-N-SH (Neuroblastoma)) | Bliss excess [11] | Bliss excess [12] | Bliss excess [13] | Bliss excess [14] | Bliss excess [15] | Bliss excess [16] | Bliss excess [17]
CC1(C)CCC(CN2CCN(c3ccc(C(=O)NS(=O)(=O)c4ccc(NCC5CCOCC5)c([N+](=O)[O-])c4)c(Oc4cnc5[nH]ccc5c4)c3)CC2)=C(c2ccc(Cl)cc2)C1 [Venetoclax] + CN(C)CCCOc1ccc(-c2ccc3ncc4c(c3c2)n(C2CCOCC2)c(=O)n4C)cn1 [AZD0156] (first compound max 1 µM, 7x7, partner max 1 µM) | 0.0087 | 0.0387 | -0.0419 | -0.0201 | -0.002 | 0.0715 | 0.0203 | -0.0013 | -0.024 | -0.0418 | -0.0404 | -0.0717 | -0.0542 | -0.015 | -0.008 | 0.0191 | -0.0397 | -0.0135 | 0.0076 | -0.052
NC1(C(=O)N[C@@H](CCO)c2ccc(Cl)cc2)CCN(c2ncnc3[nH]ccc23)CC1 [Capivasertib] + CC(=O)c1c(C)c2cnc(Nc3ccc(N4CCNCC4)cn3)nc2n(C2CCCC2)c1=O [Palbociclib] (first compound max 10 µM, 7x7, partner max 10 µM) | 0.0347 | 0.0053 | -0.022 | -0.0055 | -0.042 | -0.0584 | 0.0115 | -0.0448 | -0.007 | -0.0489 | -0.0146 | -0.0379 | 0.0041 | -0.0203 | -0.0072 | 0.0198 | -0.0323 | -0.16 | -0.0162 | -0.0157
CCN(CCO)CCCOc1ccc2c(Nc3cc(CC(=O)Nc4cccc(F)c4)[nH]n3)ncnc2c1 [AZD2811] + O=C(c1cc(Cc2n[nH]c(=O)c3ccccc23)ccc1F)N1CCN(C(=O)C2CC2)CC1 [Olaparib] (first compound max 1 µM, 7x7, partner max 10 µM) | -0.0021 | 0.0548 | -0.0053 | -0.0457 | -0.0108 | -0.0623 | 0.0384 | -0.0238 | -0.0447 | -0.0286 | -0.0275 | 0.0144 | -0.0701 | -0.0469 | -0.0179 | -0.0429 | -0.0043 | -0.014 | -0.0474 | -0.0253
Cc1c2c(nn1C)CSCc1cc(n(C)n1)CSc1cc(c3ccccc3c1)OCCCc1c(C(=O)O)n(C)c3c-2c(Cl)ccc13 [AZD5991] + CN(C)CCCOc1ccc(-c2ccc3ncc4c(c3c2)n(C2CCOCC2)c(=O)n4C)cn1 [AZD0156] (first compound max 1 µM, 7x7, partner max 1 µM) | -0.0001 | -0.0079 | 0.0341 | -0.0113 | -0.0089 | 0.0225 | 0.0086 | -0.0129 | -0.0232 | 0.0104 | 0.0401 | 0.0151 | 0.0204 | -0.0186 | 0.0252 | -0.0012 | 0.056 | 0.0051 | 0.0335 | -0.0032
CN(CCO)CC[C@H](CSc1ccccc1)Nc1ccc(S(=O)(=O)NC(=O)c2ccc(N3CCC([C@@H](O)c4ccccc4-c4ccc(Cl)cc4)CC3)cc2)cc1S(=O)(=O)C(F)(F)F [AZD4320] + CN(C)CCCOc1ccc(-c2ccc3ncc4c(c3c2)n(C2CCOCC2)c(=O)n4C)cn1 [AZD0156] (first compound max 1 µM, 7x7, partner max 1 µM) | -0.0301 | 0.0125 | -0.0537 | -0.0314 | -0.0302 | 0.0708 | 0.0233 | -0.0391 | -0.0341 | -0.0392 | -0.0704 | -0.0076 | -0.0439 | -0.0214 | -0.0497 | 0.0491 | 0.0463 | -0.0007 | -0.0218 | -0.0386
C[C@@H]1COCCN1c1cc(C2([S@](C)(=N)=O)CC2)nc(-c2ccnc3[nH]ccc23)n1 [AZD6738] + O=C(c1cc(Cc2n[nH]c(=O)c3ccccc23)ccc1F)N1CCN(C(=O)C2CC2)CC1 [Olaparib] (first compound max 10 µM, 7x7, partner max 10 µM) | 0.0465 | -0.0187 | 0.0106 | 0.0128 | -0.0049 | 0.0725 | 0.003 | 0.015 | 0.059 | 0.0236 | 0.0482 | 0.0028 | -0.0667 | 0.0019 | 0.0096 | 0.0646 | -0.0408 | 0.0123 | -0.0159 | -0.0391
Cc1c2c(nn1C)CSCc1cc(n(C)n1)CSc1cc(c3ccccc3c1)OCCCc1c(C(=O)O)n(C)c3c-2c(Cl)ccc13 [AZD5991] + CCN(CCO)CCCOc1ccc2c(Nc3cc(CC(=O)Nc4cccc(F)c4)[nH]n3)ncnc2c1 [AZD2811] (first compound max 1 µM, 7x7, partner max 1 µM) | 0.0024 | 0.089 | 0.0009 | 0.0337 | -0.028 | -0.0088 | 0.0543 | 0.0311 | 0.0408 | 0.0203 | -0.0421 | -0.0294 | -0.068 | 0.101 | 0.019 | 0.0104 | 0.0467 | 0.0057 | 0.095 | -0.0173
